Two compounds from ChEMBL document CHEMBL4304740, “Structure-Based Design of Selective β-Site Amyloid Precursor Protein Cleaving Enzyme 1 (BACE1) Inhibitors: Targeting the Flap to Gain Selectivity over BACE2” (J Med Chem, 2019) can be followed below.

A short description of one series: in vivo. The conditions noted are these: Crl:CD(ICR), mouse, brain/plasma, po, 30 mg/kg.
Series [1] can be described thus: in vitro. The conditions noted are these: human, liver microsomes.
Series [2] can be described thus: in vitro. The conditions noted are these: mouse, liver microsomes. (Microsomes from liver hold many membrane-bound enzymes, among them those of drug oxidation.)
The next series in a line: physchem. The settings on record: octanol/phosphate buffered saline, pH 7.4.

Take `C[C@]1(c2cc(NC(=O)c3cnc(OCF)cn3)ccc2F)N=C(N)SCC12CCC(F)(F)CC2`: the Kp (in general, tissue or fluid exposure divided by exposure in the circulation) in the series “in vivo” was determined as 0.55. Also, the fraction remaining (usually the share of the starting amount still present when the sample was taken) at 0.5 h, 0.1 µM in “in vitro [1]” was determined as 27%; in “in vitro [2]” it was 4.5%. Also, the logD (in general, the decadic logarithm of the distribution of all forms, ionised or not, between an organic phase and buffer at a given pH) in “physchem” was determined as 2.3.
Regarding `C[C@]1(c2cc(NC(=O)c3cnc(OCF)cn3)ccc2F)N=C(N)SCC12CCOCC2`, the amount remaining at 0.5 h, 0.1 µM in the series “in vitro [1]” stood at 51%; in the series “in vitro [2]” it was 5%. This compound came in with a logD in the series “physchem” of 1.2.
